Assay results as given in patent publication US20080221132A1, “Multi-Functional Small Molecules as Anti-Proliferative Agents” (priority 2006, published 2008).

How the values were obtained:
[1] = tested on: Colon_HCT116 (HCT116, colon cancer); experiment: Cell proliferation assay (ATPlite), HCT116; assay type: cell-based; conditions: Homo sapiens, HCT-116; TABLE C; 72 hours, 0.5% fetal bovine serum, ATP content; read-out: IC50 grading, Colon_HCT116
Description: (§1) A representative number of compounds were assayed against several different cell lines using the cell proliferation assay:
(§2) Cell Proliferation Assay:
Cancer cell lines were plated at 5,000 to 10,000 per well in 96-well flatted bottomed plates with various concentration of compounds. […] Growth inhibition was accessed by adenosine triphosphate (ATP) content assay using Perkin Elmer ATPlite kit. ATPlite is an ATP monitoring system based on firefly luciferase. Briefly, 25 μl of mammalian cell lysis solution was added to 50 μl of phenol red-free culture medium per well to lyse the cells and stabilize the ATP. 25 μl of substrate solution was then added to the well and subsequently the luminescence was measured.

Pancreas_HPAC = experiment: Cell proliferation assay (ATPlite), HPAC; assay type: cell-based; conditions: Homo sapiens, TABLE C, 72 hours, 0.5% fetal bovine serum, ATP content, read-out: IC50 grading, Pancreas_HPAC
Description: as §1, §2
(§3) Cancer cell lines were plated at 5,000 to 10,000 per well in 96-well flatted bottomed plates with various concentration of compounds. The cells were incubated with compounds for 72 hours in the presence of 0.5% of fetal bovine serum. Growth inhibition was accessed by adenosine triphosphate (ATP) content assay using Perkin Elmer ATPlite kit. ATPlite is an ATP monitoring system based on firefly luciferase. Briefly, 25 μl of mammalian cell lysis solution was added to 50 μl of phenol red-free culture medium per well to lyse the cells and stabilize the ATP. 25 μl of substrate solution was then added to the well and subsequently the luminescence was measured.

Pancreas_BxPC3 = experiment: Cell proliferation assay (ATPlite), BxPC3; assay type: cell-based; conditions: Homo sapiens, BXPC-3; TABLE C; 72 hours, 0.5% fetal bovine serum, ATP content; read-out: IC50 grading, Pancreas_BxPC3
Description: as §1, §2, §3

Pancreas_CFPAC = experiment: Cell proliferation assay (ATPlite), CFPAC; assay type: cell-based; conditions: TABLE C; 72 hours, 0.5% fetal bovine serum, ATP content; read-out: IC50 grading, Pancreas_CFPAC
Description: as §1, §2, §3

Pancreas_PANC1 = experiment: Cell proliferation assay (ATPlite), PANC1; assay type: cell-based; conditions: Homo sapiens, PANC-1; TABLE C; 72 hours, 0.5% fetal bovine serum, ATP content; read-out: IC50 grading, Pancreas_PANC1
Description: as §1, §2, §3

Pancreas_MiaPaCa2 = experiment: Cell proliferation assay (ATPlite), MiaPaCa2; assay type: cell-based; conditions: Homo sapiens, MIA PaCa-2; TABLE C; 72 hours, 0.5% fetal bovine serum, ATP content; read-out: IC50 grading, Pancreas_MiaPaCa2
Description: as §1, §2, §3

[2] = tested on: HDAC (HeLa nuclear extract); experiment: HDAC fluorimetric assay kit (AK-500, Biomol), HeLa nuclear extract; assay type: biochemical; conditions: TABLE 1-B, Section 1 compounds; read-out: HDAC (IC50 grading)
Description: (§4) HDAC inhibitors were screened using an HDAC fluorimetric assay kit (AK-500, Biomol, Plymouth Meeting, Pa.). […] Each assay was setup as follows: Defrosted all kit components and kept on ice until use. […] Prepared dilutions of Trichostatin A (TSA, positive control) and tested compounds in assay buffer (5× of final concentration). Diluted Fluor de Lys™ Substrate in assay buffer to 100 uM (50 fold=2× final). Diluted Fluor de Lys™ developer concentrate 20-fold (e.g. 50 μl plus 950 μl Assay Buffer) in cold assay buffer. Second, diluted the 0.2 mM Trichostatin A 100-fold in the 1× Developer (e.g. 10 μl in 1 ml; final Trichostatin A concentration in the 1× Developer=2 μM; final concentration after addition to HDAC/Substrate reaction=1 μM). Added Assay buffer, diluted trichostatin A or test inhibitor to appropriate wells of the microtiter plate. Added diluted HeLa extract or other HDAC sample to all wells except for negative controls.
HDAC inhibitors were screened using an HDAC fluorimetric assay kit (AK-500, Biomol, Plymouth Meeting, Pa.).
Each assay was setup as follows: Defrosted all kit components and kept on ice until use. […] Prepared dilutions of Trichostatin A (TSA, positive control) and tested compounds in assay buffer (5× of final concentration). Diluted Fluor de Lys™ Substrate in assay buffer to 100 uM (50 fold=2× final). Diluted Fluor de Lys™ developer concentrate 20-fold (e.g. 50 μl plus 950 μl Assay Buffer) in cold assay buffer. Second, diluted the 0.2 mM Trichostatin A 100-fold in the 1× Developer (e.g. 10 μl in 1 ml; final Trichostatin A concentration in the 1× Developer=2 μM; final concentration after addition to HDAC/Substrate reaction=1 μM). Added Assay buffer, diluted trichostatin A or test inhibitor to appropriate wells of the microtiter plate. Added diluted HeLa extract or other HDAC sample to all wells except for negative controls.
HDAC inhibitors is screened using an HDAC fluorimetric assay kit (AK-500, Biomol, Plymouth Meeting, Pa.).
Each assay is setup as follows: Defrost all kit components and kept on ice until use. […] Prepare dilutions of Trichostatin A (TSA, positive control) and tested compounds in assay buffer (5× of final concentration). Dilute Fluor de Lys™ Substrate in assay buffer to 100 uM (50 fold=2× final). Dilute Fluor de Lys™ developer concentrate 20-fold (e.g. 50 μl plus 950 μl Assay Buffer) in cold assay buffer. Second, dilute the 0.2 mM Trichostatin A 100-fold in the 1× Developer (e.g. 10 μl in 1 ml; final Trichostatin A concentration in the 1× Developer=2 μM; final concentration after addition to HDAC/Substrate reaction=1 μM). Add Assay buffer, dilute trichostatin A or test inhibitor to appropriate wells of the microtiter plate. Add diluted HeLa extract or other HDAC sample to all wells except for negative controls.
as §4, with “assay buffer)” for “Assay Buffer)”, “assay” for “Assay”
CDK2/cyclinE: 0.5 nM CDK2/cyclinE and 5 μM Histon H1 are in the reaction buffer plus 1 μM ATP and 1% DMSO final. Incubate for 2 hours at room temperature. […] Incubate for 2 hours at room temperature.

Row | SMILES | melting point | IC50 (Pancreas_BxPC3) [µM] | IC50 (Pancreas_PANC1) [µM] | IC50 (Pancreas_MiaPaCa2) [µM] | IC50 [2] [µM] | IC50 (Pancreas_HPAC) [µM] | IC50 (Pancreas_CFPAC) [µM] | also measured
1 | Nc1ncnc2c1nc(Sc1cc3c(cc1Br)OCO3)n2CC(=O)NO [Compound 1, 2-(6-amino-8-(6-bromobenzo[d][1,3]dioxol-5-ylthio)-9H-purin-9-yl)-N-hydroxyacetamide] | 230 °C (dec.) | – | – | – | – | – | – | –
2 | CC(C)(C)c1cnc(CSc2cnc(NC(=O)C3CCN(CCCC(=O)NO)CC3)s2)o1 [Compound 1, N-(5-((5-tert-butyloxazol-2-yl)methylthio)thiazol-2-yl)-1-(4-(hydroxyamino)-4-oxobutyl)piperidine-4-carboxamide] | 176 to 180 °C | – | – | – | – | – | – | –
3 | CC(C)(C)c1cnc(CSc2cnc(NC(=O)C3CCN(CCCCCC(=O)NO)CC3)s2)o1 [Compound 3, N-(5-((5-tert-butyloxazol-2-yl)methylthio)thiazol-2-yl)-1-(6-(hydroxyamino)-6-oxohexyl)piperidine-4-carboxamide] | 127 to 130 °C | – | – | – | – | – | – | –
4 | Cc1[nH]c(/C=C2\C(=O)Nc3ccc(F)cc32)c(C)c1C(=O)NCCCCCC(=O)NO [Compound 4, N-(5-(hydroxycarbamoyl)pentyl)5-((Z)-(5-fluoro-2-oxoindolin-3-ylidene)methyl)-2,4-dimethyl-1H-pyrrole-3-carboxamide] | 209.7 °C (dec.) | – | – | – | – | – | – | –
5 | CN(C)CC[C@H](CSc1ccccc1)Nc1ccc(S(=O)(=O)NC(=O)c2ccc(N3CCN(Cc4ccccc4-c4ccc(Cl)cc4)CC3)c(NC(=O)CCCCC(=O)NO)c2)cc1[N+](=O)[O-] [Compound 8, (R)—N^1-(2-(4-((4′-Chlorobiphenyl-2-yl)methyl)piperazin-1-yl)-5-(4-(4-(dimethylamino)-1-(phenylthio)butan-2-ylamino)-3-nitrophenylsulfonylcarbamoyl)phenyl)-N^6-hydroxyadipamide] | 150 °C | – | – | – | – | – | – | –
6 | C[C@@H](Nc1ncnc2[nH]c(-c3ccc(OCC(=O)NO)cc3)cc12)c1ccccc1 [Compound 17, (R)—N-hydroxy-2-(4-(4-(1-phenylethylamino)-7H-pyrrolo[2,3-d]pyrimidin-6-yl)phenoxy)acetamide] | 116.8 to 126.8 °C | – | – | – | – | – | – | –
7 | O=C(CCCCCCOc1ccc2ncnc(Nc3ccc(F)c(Cl)c3)c2c1)NO [Compound 18] | – | 0.1 to 1 | 0.1 to 1 | 0.1 to 1 | – | 1 to 10 | 0.1 to 1 | IC50 [1]: 0.1 to 1 µM
8 | Cc1nc(NCCCCCCC(=O)NO)cc(Nc2ncc(C(=O)Nc3c(C)cccc3Cl)s2)n1 [Compound 24, N-(2-chloro-6-methylphenyl)-2-(6-(7-(hydroxyamino)-7-oxoheptylamino)-2-methylpyrimidin-4-ylamino)thiazole-5-carboxamide] | 150.7 °C (dec.) | – | – | – | – | – | – | –
9 | Nc1ccc(C(=O)NCCNC(=O)CCCC(=O)NO)cc1 [Compound 29, N-hydroxy-4-(2-(4-aminobenzamido)-ethylcarbamoyl)butanamide] | 158.9 to 159.8 °C | – | – | – | – | – | – | –
10 | COc1cc2ncnc(Nc3ccc(F)c(Cl)c3)c2cc1NC(=O)CCCCCCC(=O)NO [Compound 40] | – | 1 to 10 | 1 to 10 | 1 to 10 | – | 1 to 10 | 1 to 10 | –
11 | COc1cc2ncnc(Nc3ccc(F)c(Cl)c3)c2cc1OCCOc1ccc(/C=C/C(=O)NO)cc1 [Compound 66] | – | 1 to 10 | 1 to 10 | 1 to 10 | – | 1 to 10 | > 10 | –
12 | COCCOc1cc2ncnc(Nc3ccc(F)c(Cl)c3)c2cc1NC(=O)CCCCCCC(=O)NO [Compound 70, N^1-(4-(3-chloro-4-fluorophenylamino)-7-(2-methoxyethoxy)quinazolin-6-yl)-N^8-hydroxyoctanediamide] | – | 1 to 10 | 1 to 10 | 1 to 10 | – | > 10 | 1 to 10 | –
13 | COc1cc2ncnc(N[C@H](C)c3ccccc3)c2cc1OCCCCCC(=O)NO [Compound 77, (R)—N-hydroxy-6-(7-methoxy-4-(1-phenylethylamino)quinazolin-6-yloxy)-hexanamide] | – | 1 to 10 | > 10 | 0.1 to 1 | – | > 10 | 1 to 10 | –
14 | COc1cc2ncnc(N[C@H](C)c3ccccc3)c2cc1OCCCCCCC(=O)NO [Compound 79, (R)—N-hydroxy-7-(7-methoxy-4-(1-phenylethylamino)quinazolin-6-yloxy)heptanamide] | – | 1 to 10 | 1 to 10 | 1 to 10 | – | > 10 | 1 to 10 | –
15 | COc1cc2ncnc(Nc3ccc(F)c(Cl)c3)c2cc1OCCCCCC(C(=O)NO)C(C)C (stereo not shown) [Compound 112] | – | – | – | – | > 10 | – | – | –

Second part, led by results:

Row | melting point | IC50 (Pancreas_BxPC3) [µM] | IC50 (Pancreas_PANC1) [µM] | IC50 (Pancreas_MiaPaCa2) [µM] | IC50 [2] [µM] | SMILES | IC50 (Pancreas_HPAC) [µM] | IC50 (Pancreas_CFPAC) [µM] | also measured
16 | – | 0.1 to 1 | 1 to 10 | 1 to 10 | – | COc1cc2ncnc(NCc3ccccc3)c2cc1OCCCCCCC(=O)NO [Compound 85, 7-(4-(Benzylamino)-7-methoxyquinazolin-6-yloxy)-N-hydroxyheptanamide] | 1 to 10 | 1 to 10 | IC50 [1]: 0.1 to 1 µM
17 | – | – | – | – | > 10 | COc1cc2ncnc(Nc3ccc(F)c(Cl)c3)c2cc1NC(=O)Nc1ccc(C(=O)NO)cc1 [Compound 94] | – | – | –
18 | – | – | – | – | 0.1 to 1 | COc1cc2ncnc(Nc3ccc(F)c(Cl)c3)c2cc1OCCCOc1ccc(C(=O)NO)cc1 [Compound 202] | – | – | –
19 | – | – | – | – | 0.1 to 1 | COc1cc2ncnc(Nc3ccc(F)c(Cl)c3)c2cc1OCCCCOc1ccc(C(=O)NO)cc1 [Compound 203] | – | – | –
20 | – | – | – | – | 1 to 10 | COc1cc2ncnc(Nc3ccc(F)c(Cl)c3)c2cc1Oc1ccc(C#CCCC(=O)NO)cc1 [Compound 204] | – | – | –
21 | – | – | – | – | < 0.1 | C#Cc1cccc(Nc2ncnc3cc(O)c(OCCCCCCC(=O)NO)cc23)c1 [Compound 207] | – | – | –
22 | – | – | – | – | < 0.1 | C#Cc1cc(Nc2ncnc3cc(O)c(OCCCCCCC(=O)NO)cc23)ccc1O [Compound 208] | – | – | –
